Experiments:
[1] = test system: CYP3A4, CYP2C8, CYP2D6, and UGT1A9; test: Metabolism in vitro; type: in vitro ADME
[2] = target: CYP3A4, CYP2C8, CYP2D6, and UGT1A9 (Homo sapiens, UniProt P08684); test: Metabolism in vitro; type: in vitro ADME
[3] = Toxicokinetic evaluation in pregnant rabbits (Example 4); type: in vivo, rabbit; details: for Cmax / AUC(0-t): female, New Zealand White, rabbit, plasma, po; for AUC(0-t): read-out: Mean AUC0-24 in plasma of pregnant rabbits
Experimental: The dose levels for the treated groups were 50, 125, 225, mg base/kg/day at a dose volume of 10 mL/kg. The control group received the vehicle in the same manner as the treated groups. […] Individual doses were based on the most recent body weights.
Observations of the animals included clinical signs, body weights, food consumption, and anatomical pathology including a uterine examination. […] All fetuses were given an external, visceral, and skeletal examination.

OATP1B1 = target: T1, OATP1B1 (Homo sapiens, UniProt Q9Y6L6); test: Transporter systems in vitro: OATP1B1; type: in vitro ADME; details: clinically relevant concentrations
T1 sequence (Q9Y6L6 1-691): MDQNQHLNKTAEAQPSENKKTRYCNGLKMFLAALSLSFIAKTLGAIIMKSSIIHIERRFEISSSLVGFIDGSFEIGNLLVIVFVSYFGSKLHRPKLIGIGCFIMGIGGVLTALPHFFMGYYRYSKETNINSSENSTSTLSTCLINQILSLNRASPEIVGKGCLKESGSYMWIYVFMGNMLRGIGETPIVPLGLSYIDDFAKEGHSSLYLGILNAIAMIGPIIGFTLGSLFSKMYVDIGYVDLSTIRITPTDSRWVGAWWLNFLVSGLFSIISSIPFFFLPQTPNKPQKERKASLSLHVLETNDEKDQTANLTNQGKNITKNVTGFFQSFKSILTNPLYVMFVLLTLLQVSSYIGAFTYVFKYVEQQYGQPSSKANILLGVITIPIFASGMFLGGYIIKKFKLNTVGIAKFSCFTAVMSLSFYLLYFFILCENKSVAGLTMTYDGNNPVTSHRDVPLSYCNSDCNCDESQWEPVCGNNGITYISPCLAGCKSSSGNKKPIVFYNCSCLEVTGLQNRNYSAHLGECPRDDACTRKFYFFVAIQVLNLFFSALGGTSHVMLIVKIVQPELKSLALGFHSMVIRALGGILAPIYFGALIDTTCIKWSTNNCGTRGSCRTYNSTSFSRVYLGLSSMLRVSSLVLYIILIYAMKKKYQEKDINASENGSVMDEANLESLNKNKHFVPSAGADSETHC

bacterial = test: in vitro bacterial mutagenicity (Ames) assay; type: cell-based
dogs = test: General toxicology studies in dogs; type: in vivo, dog
CYP2C19 = CYP2C19 (Homo sapiens, UniProt P33261); test: Enzyme systems in vitro: CYP2C19; type: in vitro ADME
rat bone marrow = test: in vivo rat bone marrow micronucleus assay
CYP1A2 = target: T2, CYP1A2 (Homo sapiens, UniProt P05177); test: Enzyme systems in vitro: CYP1A2; type: in vitro ADME
T2 sequence (P05177 1-516): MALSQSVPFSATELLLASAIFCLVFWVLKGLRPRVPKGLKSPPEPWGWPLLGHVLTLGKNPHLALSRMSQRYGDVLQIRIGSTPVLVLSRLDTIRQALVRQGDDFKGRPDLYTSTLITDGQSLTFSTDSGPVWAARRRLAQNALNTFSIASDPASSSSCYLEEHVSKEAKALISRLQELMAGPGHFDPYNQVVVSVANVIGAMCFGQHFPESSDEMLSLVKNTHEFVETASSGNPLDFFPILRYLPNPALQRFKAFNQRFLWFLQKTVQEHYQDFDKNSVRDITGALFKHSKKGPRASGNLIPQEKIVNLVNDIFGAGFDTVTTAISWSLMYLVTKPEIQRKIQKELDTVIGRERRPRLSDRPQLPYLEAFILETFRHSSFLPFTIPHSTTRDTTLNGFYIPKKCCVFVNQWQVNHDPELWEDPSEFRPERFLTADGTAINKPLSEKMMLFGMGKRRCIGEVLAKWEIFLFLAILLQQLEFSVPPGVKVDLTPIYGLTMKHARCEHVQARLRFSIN

UGT1A1 = target: T3, UGT1A1 (Homo sapiens, UniProt P22309); test: Enzyme systems in vitro: UGT1A1; type: in vitro ADME
T3 sequence (P22309 26-533): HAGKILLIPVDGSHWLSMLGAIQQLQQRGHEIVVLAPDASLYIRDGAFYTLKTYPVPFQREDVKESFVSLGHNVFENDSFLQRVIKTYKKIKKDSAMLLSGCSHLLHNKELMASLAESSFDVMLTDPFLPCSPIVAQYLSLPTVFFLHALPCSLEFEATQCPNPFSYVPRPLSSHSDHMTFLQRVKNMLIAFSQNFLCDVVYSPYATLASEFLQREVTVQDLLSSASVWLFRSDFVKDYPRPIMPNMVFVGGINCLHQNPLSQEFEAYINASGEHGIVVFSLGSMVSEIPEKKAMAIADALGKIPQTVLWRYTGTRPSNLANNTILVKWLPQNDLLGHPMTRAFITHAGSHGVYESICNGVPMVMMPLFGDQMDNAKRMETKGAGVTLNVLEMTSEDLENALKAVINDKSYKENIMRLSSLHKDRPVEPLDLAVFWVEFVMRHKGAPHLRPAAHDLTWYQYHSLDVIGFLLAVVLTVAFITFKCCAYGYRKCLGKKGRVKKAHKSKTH

[4] = test system: New Zealand White rabbits; test: Pilot prenatal developmental toxicity study in New Zealand White rabbits with non-pregnant dose range finding phase (Example 2)
Experimental: The study was conducted in two phases: Phase A was a dose range finding tolerance study with non-pregnant rabbits, and Phase B was the pilot developmental toxicity study.
All fetuses were given the appropriate external examination.

[5] = Toxicokinetics in pregnant Sprague-Dawley rats (Example 1); type: in vivo, rat; details: female, Sprague-Dawley, rat, in vivo, po, 25 mg base/kg/day
[6] = Clinical drug interaction studies, effects of other drugs on belumosudil; type: in vivo, human; details: healthy subjects
[7] = 50 mg base/kg, GD 18, belumosudil 50 mg base/kg oral
[8] = 50 mg/kg/day, GD 6, belumosudil 50 mg base/kg oral
[9] = 125 mg/kg/day, GD 6, belumosudil 125 mg base/kg oral
[10] = 125 mg/kg/day, GD 18, belumosudil 125 mg base/kg oral
[11] = 225 mg/kg/day, GD 6, belumosudil 225 mg base/kg oral
[12] = 225 mg/kg/day, GD 18, belumosudil 225 mg base/kg oral
[13] = coadministration of rabeprazole

Sequence of CYP3A4, CYP2C8, CYP2D6, and UGT1A9 (Homo sapiens, UniProt P08684) (P08684 2-503): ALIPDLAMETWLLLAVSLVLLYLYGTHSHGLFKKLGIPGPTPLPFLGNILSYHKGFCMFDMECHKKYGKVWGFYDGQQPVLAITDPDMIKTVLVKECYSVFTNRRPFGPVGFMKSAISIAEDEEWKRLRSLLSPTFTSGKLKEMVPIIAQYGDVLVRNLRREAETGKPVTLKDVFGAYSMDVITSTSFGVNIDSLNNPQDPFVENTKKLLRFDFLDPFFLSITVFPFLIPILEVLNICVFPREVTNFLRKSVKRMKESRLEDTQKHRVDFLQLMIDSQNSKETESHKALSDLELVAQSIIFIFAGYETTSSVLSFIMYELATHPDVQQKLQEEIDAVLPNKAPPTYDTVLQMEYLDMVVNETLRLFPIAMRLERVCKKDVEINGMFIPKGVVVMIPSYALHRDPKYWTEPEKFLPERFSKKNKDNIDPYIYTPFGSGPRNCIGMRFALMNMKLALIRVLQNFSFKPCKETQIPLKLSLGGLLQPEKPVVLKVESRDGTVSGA
Sequence of CYP2C19 (P33261 whole entry): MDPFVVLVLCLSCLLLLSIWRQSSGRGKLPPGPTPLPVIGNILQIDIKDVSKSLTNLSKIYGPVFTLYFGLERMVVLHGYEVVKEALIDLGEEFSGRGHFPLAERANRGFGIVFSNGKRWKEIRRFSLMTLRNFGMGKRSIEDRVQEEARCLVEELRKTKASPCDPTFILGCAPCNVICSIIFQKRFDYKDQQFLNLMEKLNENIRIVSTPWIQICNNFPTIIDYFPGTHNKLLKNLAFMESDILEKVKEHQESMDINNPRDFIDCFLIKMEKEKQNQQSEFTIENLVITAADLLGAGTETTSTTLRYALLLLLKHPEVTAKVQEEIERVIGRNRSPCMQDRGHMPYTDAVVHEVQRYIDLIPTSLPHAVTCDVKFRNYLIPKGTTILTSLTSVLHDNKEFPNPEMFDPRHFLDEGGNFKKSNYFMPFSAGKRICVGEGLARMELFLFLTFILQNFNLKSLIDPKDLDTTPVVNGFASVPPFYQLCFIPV

## CC(C)NC(=O)COc1cccc(-c2nc(Nc3ccc4[nH]ncc4c3)c3ccccc3n2)c1 [belumosudil, 2-{3-[4-(1H-indazol-5-ylamino)-2-quinazolinyl]phenoxy}-N-(propan-2-yl) acetamide]
[1]
  minor metabolizing enzymes: to a lesser extent by CYP2C8, CYP2D6, and UGT1A9
[2]
  primary metabolizing enzyme: primarily metabolized by CYP3A4
[3]; [7]
  Cmax: 437 ng/mL
  AUC(0-t): 1590 ng·h/mL
[3]; [8]
  Cmax: 919 ng/mL
  AUC(0-t): 3870 ng·h/mL
[3]; [9]
  Cmax: 3030 ng/mL
  AUC(0-t): 21400 ng·h/mL
[3]; [10]
  Cmax: 1670 ng/mL
  AUC(0-t): 9290 ng·h/mL
[3]; [11]
  Cmax: 4140 ng/mL
  AUC(0-t): 55700 ng·h/mL
[3]; [12]
  Cmax: 2580 ng/mL
  AUC(0-t): 23500 ng·h/mL
[3]; pregnant rabbits
  accumulation after multiple dosing of belumosudil: no apparent accumulation
OATP1B1
  OATP1B1 inhibition: inhibits
bacterial
  genotoxicity, bacterial mutagenicity (Ames) assay: not genotoxic
dogs
  dose with spermatozoa degeneration: 35 mg/kg/day
CYP2C19
  CYP2C19 inhibition: inhibitor
Rat bone marrow
  genotoxicity, bone marrow micronucleus assay: not genotoxic
CYP1A2
  CYP1A2 inhibition: inhibitor
UGT1A1
  UGT1A1 inhibition: inhibitor
[4]; 25 or 50 mg base/kg/day, GD 6-18
  maternal toxicity: no toxicologically relevant maternal toxicity was observed
[4]; 100 and 250 mg base/kg/day, dose-dependent
  maternal response: reduced body weight gain/loss, decreased food consumption, clinical signs
[4]; Phase A, 300 and 400 mg base/kg/day
  treatment-related effects: slight body weight losses and decreased food consumption
[4]; Phase B, any dose level (25-250 mg base/kg/day)
  embryo or fetal toxicity: no treatment-related embryo or fetal toxicity was apparent
[4]; pregnant rabbits
  NOAEL for developmental toxicity: 250 mg base/kg/day
  NOAEL for maternal toxicity: 50 mg base/kg/day
[4]; rabbit, in vivo
  survival: not affected
[5]; read-out: maternal AUC0-24
  AUC(0-t): 20400 ng·h/mL
[5]; read-out: maternal Cmax
  Cmax: 1800 ng/mL
[6]; coadministered with itraconazole
  effect on belumosudil exposure: no clinically meaningful effect
[6]; coadministration of omeprazole
  decrease in belumosudil AUC: 47%
  decrease in belumosudil Cmax: 68%
[6]; [13]
  decrease in belumosudil AUC: 80%
  decrease in belumosudil Cmax: 87%
[6]; coadministration of rifampin
  decrease in belumosudil AUC: 72%
  decrease in belumosudil Cmax: 59%
